Among the data in patent US5225528A, “Cyclic hexapeptide oxytocin antagonists” (priority 1990, dated 1993) are IC50 and inhibition values, retold here.

Where two headings read alike, the source gives them in different places. Numbered stars: 1 amine (or outer) side, 2 acyl side, 3 side chain; on linkers, the order of the positions; unused ones are H or OH. Square brackets hold non-standard residues; d marks the D form. Peptide text beside a SMILES is read from it. * marks the point of attachment. dPip(4-aza,4-Cbz) = O=C(O)[C@H]1CN(C(=O)OCc2ccccc2)CCN1; X2 = O=C(OCc1ccccc1)N1CCN([*:1])[C@H](C(=O)[*:2])C1; Pip(4-aza) = O=C(O)[C@@H]1CNCCN1; dNMeF = CN[C@H](Cc1ccccc1)C(=O)O; dPip(4-aza) = O=C(O)[C@H]1CNCCN1; Pip = O=C(O)[C@@H]1CCCCN1; dPip = O=C(O)[C@H]1CCCCN1; Orn = NCCC[C@H](N)C(=O)O; Cbz = O=C(OCc1ccccc1)*

Experiment [1] addresses T1, AVP-V1 sites (Rattus norvegicus, UniProt P30560).
T1 construct: crude membrane preparation of male rat liver (AVP-V1 sites); from tissue; host or cells: male rat liver, crude membranes
The experiment can be described thus: [^3 H]AVP binding to crude membrane preparation of male rat liver (AVP-V1 sites). Here is the method:
(§1) Nonspecific binding (5-10% of the total binding) was determined using 10 μM unlabeled AVP, and the binding reaction was terminated by filtration as described above for the [^3 H]OT binding assay.

Experiment [2] has as its target T2, AVP-V2 sites (Rattus norvegicus, UniProt Q00788).
T2 construct: male rat liver (AVP-V1 sites) or kidney medulla (AVP-V2 sites); from tissue; host or cells: male rat kidney medulla, crude membranes
Kind of experiment: [^3 H]AVP binding to crude membrane preparation of male rat kidney medulla (AVP-V2 sites). Here is the method:
as §1

The target of experiment [3] is T3, uterine OT receptors (Rattus norvegicus, UniProt P70536).
T3 construct: from tissue; host or cells: uterus of DES-treated rats, crude membranes
T3 sequence (P70536 1-388): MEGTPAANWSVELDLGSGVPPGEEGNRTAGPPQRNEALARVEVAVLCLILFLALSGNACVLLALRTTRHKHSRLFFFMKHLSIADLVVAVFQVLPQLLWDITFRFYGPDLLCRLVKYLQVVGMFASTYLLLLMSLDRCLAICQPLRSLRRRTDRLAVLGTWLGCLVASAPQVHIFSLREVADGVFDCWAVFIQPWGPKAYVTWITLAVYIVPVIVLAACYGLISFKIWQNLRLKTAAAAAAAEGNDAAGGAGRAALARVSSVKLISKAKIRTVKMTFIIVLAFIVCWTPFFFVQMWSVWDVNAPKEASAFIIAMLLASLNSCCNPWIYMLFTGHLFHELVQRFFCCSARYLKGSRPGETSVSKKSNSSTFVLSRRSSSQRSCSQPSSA
The experiment can be described thus: [^3 H]OT binding to uterine OT receptors, crude membrane preparation of uteri from DES-treated rats. The following applies: for inhibition at 1 µM / inhibition at 0.1 µM: 1 h, read-out: [^3 H]OT: percent inhibition of radioligand at the given concentration; for inhibition at 1 µM: @ 1,000 (nM); for inhibition at 0.1 µM: @ 100 (nM). As for the experimental part:
Competition studies were conducted at equilibrium (60 minutes; 22° C.) using 1 nM [^3 H]OT in the following assay buffer: 50 mM Tris-HCl, 5 mM MgCl2, and 0.1% BSA, pH 7.4.

The mark [4] stands for this setting: Receptor Binding Results IC50 (nM) [^3 H]-AVP-V1.
Where [5] appears, read: rat kidney medulla membranes, 2 nM [^3 H]AVP, read-out: Receptor Binding Results IC50 (nM) [^3 H]-AVP-V2.
Setting [6] is: rat uterus membranes, 1 nM [^3 H]OT, read-out: Receptor Binding Results IC50 (nM) [^3 H]OT.
Where [7] appears, read: Receptor Binding Results IC50 (nM) [^3 H]-AVP-V2.

T2 sequence (Q00788 whole entry): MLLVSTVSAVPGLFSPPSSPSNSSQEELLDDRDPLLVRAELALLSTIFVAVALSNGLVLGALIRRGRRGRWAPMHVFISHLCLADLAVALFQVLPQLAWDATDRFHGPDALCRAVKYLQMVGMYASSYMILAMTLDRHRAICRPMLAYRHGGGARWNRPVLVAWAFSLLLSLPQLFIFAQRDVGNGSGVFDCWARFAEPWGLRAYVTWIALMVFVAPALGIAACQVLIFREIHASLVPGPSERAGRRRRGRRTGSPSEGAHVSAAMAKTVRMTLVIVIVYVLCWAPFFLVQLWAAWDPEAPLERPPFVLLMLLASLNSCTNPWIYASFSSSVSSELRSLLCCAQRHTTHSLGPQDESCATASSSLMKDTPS
T1 sequence (P30560 whole entry): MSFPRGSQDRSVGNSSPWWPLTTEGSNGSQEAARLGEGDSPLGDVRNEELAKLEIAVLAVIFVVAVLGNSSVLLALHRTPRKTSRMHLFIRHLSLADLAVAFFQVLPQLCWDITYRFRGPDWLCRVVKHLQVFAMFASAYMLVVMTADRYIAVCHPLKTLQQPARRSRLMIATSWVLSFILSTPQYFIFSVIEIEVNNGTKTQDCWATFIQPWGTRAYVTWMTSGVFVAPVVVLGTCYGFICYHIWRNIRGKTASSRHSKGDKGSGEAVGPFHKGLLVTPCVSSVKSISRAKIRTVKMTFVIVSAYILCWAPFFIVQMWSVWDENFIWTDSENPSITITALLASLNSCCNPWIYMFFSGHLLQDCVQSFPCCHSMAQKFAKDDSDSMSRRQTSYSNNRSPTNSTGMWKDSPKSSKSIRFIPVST

One may read the IC50 as the midpoint of a concentration-inhibition curve. For the compound `CC[C@H](C)[C@@H]1NC(=O)[C@@H](Cc2ccccc2)NC(=O)[C@@H]2CCCN2C(=O)[C@@H](Cc2c[nH]cn2)NC(=O)[C@H]2CN(C(=O)OCc3ccccc3)CCN2C(=O)[C@H]2CCCCN2C1=O` [Example 82, c-[D-Phenylalanyl-L-isoleucinyl-D-pipecolyl-D-piperazin-2-yl(4Cbz)-D-histidinyl-L-prolyl]] (cyclo(I[dPip][dPip(4-aza,4-Cbz)][dH]P[dF])), the half-maximal inhibitory concentration (IC50) in experiment [1] (setting [4]) turned out to be 10000 nM; in experiment [2] (setting [5]) it was 10000 nM; in experiment [3] (setting [6]), 73 nM.
Turning to `CC[C@H](C)[C@@H]1NC(=O)[C@@H](Cc2ccccc2)NC(=O)[C@@H]2CCCN2C(=O)[C@@H](Cc2ccccc2)NC(=O)[C@@H]2CCCCN2C(=O)[C@H]2CN(C(=O)OCc3ccccc3)CCN2C1=O` [Example 83, c-[D-Phenylalanyl-L-isoleucinyl-D-piperazin-2-yl-(4-Cbz)-L-pipecolyl-D-phenylalanyl-L-prolyl]] (cyclo(I[dPip(4-aza,4-Cbz)][Pip][dF]P[dF])), the IC50 in experiment [1] (setting [4]) turned out to be 10000 nM; in experiment [2] (setting [5]) it was 10000 nM; in experiment [3] (setting [6]) it was 940 nM.
With `CC[C@H](C)[C@@H]1NC(=O)[C@@H](Cc2ccccc2)NC(=O)[C@@H]2CCCN2C(=O)[C@@H](Cc2ccccc2)NC(=O)[C@@H]2CCCCN2C(=O)[C@H]2CNCCN2C1=O` [Example 84, c-[D-Phenylalanyl-L-isoleucinyl-D-piperazin-2-yl-L-pipecolyl-D-phenyalanyl-L-prolyl]] (cyclo(I[dPip(4-aza)][Pip][dF]P[dF])), the results for the IC50 in experiment [1] (setting [4]), in experiment [2] (setting [5]) and in experiment [3] (setting [6]) were 10000 nM, > 10000 nM and > 1000 nM, respectively.
In the case of `CC[C@H](C)[C@@H]1NC(=O)[C@@H](Cc2ccccc2)NC(=O)[C@@H]2CCCN2C(=O)[C@@H](Cc2ccccc2)N(C)C(=O)[C@H]2CN(C(=O)OCc3ccccc3)CCN2C(=O)[C@H]2CN(C(=O)OCc3ccccc3)CCN2C1=O` [Example 85, c-[Phenylalanyl-L-isoleucinyl-D-piperazin-2-yl(4-Cbz)-D-piperazin-2-yl(4-Cbz)-D-(N^α -methyl)phenylalanyl-L-prolyl]] (cyclo([dF]I[dPip(4-aza,4-Cbz)][dPip(4-aza,4-Cbz)][dNMeF]P)), the concentration for half-maximal inhibition (IC50) in experiment [1] (setting [4]) is > 10000 nM; in experiment [2] (setting [5]), 10000 nM; in experiment [3] (setting [6]), 1000 nM.
Regarding `CC[C@H](C)[C@@H]1NC(=O)[C@@H](Cc2ccccc2)NC(=O)[C@@H]2CCCN2C(=O)[C@@H](Cc2ccccc2)N(C)C(=O)[C@@H]2CN(C(=O)OCc3ccccc3)CCN2C(=O)[C@H]2CN(C(=O)OCc3ccccc3)CCN2C1=O` [Example 86, c-[D-Phenylalanyl-L-isoleucinyl-D-piperazin-2-yl(4-Cbz)-L-piperazin-2-yl(4-Cbz)-D-(N^α -methyl)phenylalanyl-L-prolyl]] (cyclo(I[dPip(4-aza,4-Cbz)][X2][dNMeF]P[dF])), the IC50 in experiment [1] (setting [4]) and in experiment [2] (setting [5]) was > 10000 nM in each case. Further, the inhibition at 1 µM in experiment [3] worked out at 58%.
As to `CC[C@H](C)[C@@H]1NC(=O)[C@@H](Cc2c[nH]c3ccccc23)NC(=O)[C@@H]2CCCN2C(=O)[C@@H](Cc2ccccc2)NC(=O)[C@@H]2CNCCN2C(=O)[C@H]2CCCCN2C1=O` [Example 87, c-[D-Tryptophanyl-L-isoleucinyl-D-pipecolyl-L-piperazin-2-yl-D-phenylalanyl-L-prolyl]] (cyclo(I[dPip][Pip(4-aza)][dF]P[dW])), the IC50 in experiment [1] (setting [4]) was > 10000 nM; in experiment [2] (setting [7]), > 1000 nM; in experiment [3] (setting [6]), 62 nM.
In the case of `CC[C@H](C)[C@@H]1NC(=O)[C@@H](Cc2c[nH]c3ccccc23)NC(=O)[C@@H]2CCCN2C(=O)[C@@H](Cc2c[nH]c3ccccc23)NC(=O)[C@@H]2CNCCN2C(=O)[C@H]2CCCCN2C1=O` [Example 88, c-[D-Trytophanyl-L-isoleucinyl-D-pipecolyl-L-piperazin-2-yl-D-tryptophanyl-L-prolyl]] (cyclo(I[dPip][Pip(4-aza)][dW]P[dW])), the results for the concentration for half-maximal inhibition (IC50) in experiment [1] (read-out: Receptor Binding Results IC50 (nM) [^3 H]-AVP-V1), in experiment [2] (setting [7]) and in experiment [3] (setting [6]) were 5780 nM, 1000 nM and 18 nM, respectively.
With `CC[C@H](C)[C@@H]1NC(=O)[C@@H](Cc2c[nH]c3ccccc23)NC(=O)[C@@H]2CCCN2C(=O)[C@@H](Cc2ccccc2)NC(=O)[C@@H]2CN(C(=O)OCc3ccccc3)CCN2C(=O)[C@H]2CCCCN2C1=O` [Example 89, c-[D-Tryptophanyl-L-isoleucinyl-D-pipecolyl-L-piperazin-2-yl(4-Cbz)-D-phenylalanyl-L-prolyl]] (cyclo(I[dPip][X2][dF]P[dW])), the IC50 in experiment [1] (setting [4]) was > 10000 nM; in experiment [2] (setting [7]), > 1000 nM. Further, the inhibition at 0.1 µM in experiment [3] turned out to be 35%.
Take `CC[C@H](C)[C@@H]1NC(=O)[C@@H](Cc2c[nH]c3ccccc23)NC(=O)[C@@H]2CCCN2C(=O)[C@@H](Cc2ccccc2)NC(=O)[C@H]2CN(C(=O)OCc3ccccc3)CCN2C(=O)[C@H]2CCCCN2C1=O` [Example 90, c-[D-Tryptophanyl-L-isoleucinyl-D-pipecolyl-D-piperazin-2-yl(4-Cbz)-D-phenylalanyl-L-prolyl]] (cyclo(I[dPip][dPip(4-aza,4-Cbz)][dF]P[dW])): the half-inhibitory concentration (IC50) in experiment [1] (setting [4]) and in experiment [2] (setting [5]) was > 10000 nM in each case. Further, the inhibition at 0.1 µM in experiment [3] came to 59%.
On to `CC[C@H](C)[C@@H]1NC(=O)[C@@H](Cc2c[nH]c3ccccc23)NC(=O)[C@@H]2CCCN2C(=O)[C@@H](Cc2ccccc2)N(C)C(=O)[C@H]2CN(C(=O)OCc3ccccc3)CCN2C(=O)[C@H]2CCCCN2C1=O` [Example 91, c-[D-Tryptophanyl-L-isoleucinyl-D-pipecolyl-D-piperazin-2-yl(4-Cbz)-D-(N^α -methyl)phenylalanyl-L-prolyl]] (cyclo(I[dPip][dPip(4-aza,4-Cbz)][dNMeF]P[dW])), for which the figures for the concentration for half-maximal inhibition (IC50) in experiment [1] (setting [4]), in experiment [2] (setting [7]) and in experiment [3] (setting [6]) were > 10000 nM, > 1000 nM and 93 nM, respectively.
Turning to `CC[C@H](C)[C@@H]1NC(=O)[C@@H](Cc2c[nH]c3ccccc23)NC(=O)[C@@H]2CCCN2C(=O)[C@@H](Cc2ccccc2)N(C)C(=O)[C@@H]2CNCCN2C(=O)[C@H]2CCCCN2C1=O` [Example 92, c-[D-Tryptophanyl-L-isoleucinyl-D-pipecolyl-L-piperazin-2-yl-D-(N^α -methyl)phenylalanyl-L-prolyl]] (cyclo(I[dPip][Pip(4-aza)][dNMeF]P[dW])), the IC50 in experiment [1] (setting [4]) is > 10000 nM; in experiment [2] (read-out: Receptor Binding Results IC50 (nM) [^3 H]-AVP-V2) it was 750 nM; in experiment [3] (Receptor Binding Results IC50 (nM) [^3 H]OT) it was 7.7 nM.
For `CC[C@H](C)[C@@H]1NC(=O)[C@@H](Cc2c[nH]c3ccccc23)NC(=O)[C@@H]2CCCN2C(=O)[C@@H](Cc2c[nH]cn2)NC(=O)[C@H](Cc2c[nH]cn2)NC(=O)[C@H]2CCCN2C1=O` [Example 94, c-[D-Tryptophanyl-L-isoleucinyl-D-prolyl-L-histidyl-D-histidyl-L-prolyl]] (cyclo(H[dH]P[dW]I[dP])), the 50% inhibitory concentration (IC50) is 10000 nM in experiment [1] (setting [4]) and > 10000 nM in experiment [2] (setting [5]). The inhibition at 1 µM in experiment [3] was 64%.
With `CC[C@H](C)[C@@H]1NC(=O)[C@@H](Cc2c[nH]c3ccccc23)NC(=O)[C@@H]2CCCN2C(=O)[C@H](Cc2c[nH]cn2)NC(=O)[C@H](CCCNC(=O)OCc2ccccc2)NC(=O)[C@H]2CCCN2C1=O` [Example 95, c-[D-Tryptophanyl-L-isoleucinyl-D-prolyl-L-ornithinyl(Cbz)-D-histidyl-L-prolyl]] (cyclo([dW]I[dP][Orn](Cbz)HP)), the IC50 in experiment [1] (setting [4]) and in experiment [2] (setting [5]) was > 10000 nM each time. In experiment [3], the inhibition at 0.1 µM is 36%.
